In brackets after ≈: the same amount, converted by molar mass. Read-outs that look alike come from different tables or passages of the source.
Tests used:
[1] = tested on: vancomycin-sensitive Staphylococcus aureus Newman strain; assay: In vitro antibacterial activity assay (MIC, CLSI dilution method); assay type: cell-based; conditions: Staphylococcus aureus, 16 h, S. aureus Newman, 37° C.
[2] = tested on: vancomycin-middle resistant Staphylococcus aureus Mu50 strain; assay: as above; assay type: cell-based; conditions: Staphylococcus aureus, 16 h, read-out: MIC Mu50

Compound | MIC ([1]; NEWMAN) | MIC ([2]; S. aureus Mu50, 37° C.) | MIC [1] | MIC [2]
CCCCCCCCCCNCCNC1(C)C[C@H](O[C@H]2C(Oc3c4cc5cc3Oc3ccc(cc3Cl)[C@@H](O)[C@@H](NC(=O)[C@@H](CC(C)C)NC)C(=O)N[C@@H](CC(N)=O)C(=O)N[C@H]5C(=O)N[C@H]3C(=O)N[C@H](C(=O)N[C@H](C(=O)O)c5cc(O)c(CNCCCNC(=O)[C@H](O)[C@@H](O)[C@H](O[C@@H]6OC(CO)[C@H](O)C(O)C6O)[C@H](O)CO)c(O)c5-c5cc3ccc5O)[C@H](O)c3ccc(c(Cl)c3)O4)O[C@H](CO)C(O)C2O)OC(C)[C@H]1O (stereo partly drawn) [Van010] | 0.25 µg/mL (≈ 0.121 µM) | 1 µg/mL (≈ 0.486 µM) |  | 
CN[C@H](CC(C)C)C(=O)N[C@H]1C(=O)N[C@@H](CC(N)=O)C(=O)N[C@H]2C(=O)N[C@@H]3C(=O)N[C@H](C(=O)N[C@H](C(=O)O)c4cc(O)c(CNCCCNC(=O)[C@H](O)[C@@H](O)[C@H](O[C@@H]5OC(CO)[C@H](O)C(O)[C@@H]5O)[C@H](O)CO)c(O)c4-c4cc3ccc4O)[C@H](O)c3ccc(c(Cl)c3)Oc3cc2cc(c3OC2O[C@H](CO)C(O)C(O)[C@H]2O[C@H]2CC(C)(NCc3ccc(-c4ccc(Cl)cc4)cc3)[C@H](O)C(C)O2)Oc2ccc(cc2Cl)[C@H]1O (stereo partly drawn) [Van015] |  |  | 0.25 µg/mL (≈ 0.12 µM) | 0.5 µg/mL (≈ 0.241 µM)
CN[C@H](CC(C)C)C(=O)N[C@H]1C(=O)N[C@@H](CC(N)=O)C(=O)N[C@H]2C(=O)N[C@H]3C(=O)N[C@H](C(=O)N[C@H](C(=O)O)c4cc(O)c(CNCCO[C@H]5OC(CO)[C@@H](O)C(O)C5O)c(O)c4-c4cc3ccc4O)[C@H](O)c3ccc(c(Cl)c3)Oc3cc2cc(c3OC2O[C@H](CO)C(O)C(O)[C@H]2O[C@@H]2CC(C)[C@@H](O)C(C)(NCc3ccc(-c4ccc(Cl)cc4)cc3)C2)Oc2ccc(cc2Cl)[C@H]1O (stereo partly drawn) [Van013] |  |  | 2 µg/mL (≈ 1.06 µM) | 4 µg/mL (≈ 2.12 µM)
CN[C@H](CC(C)C)C(=O)N[C@H]1C(=O)N[C@@H](CC(N)=O)C(=O)N[C@H]2C(=O)N[C@H]3C(=O)N[C@H](C(=O)N[C@H](C(=O)O)c4cc(O)c(CNCCCNC(=O)[C@H](O)[C@@H](O)[C@H](O)[C@H](O)CO)c(O)c4-c4cc3ccc4O)[C@H](O)c3ccc(c(Cl)c3)Oc3cc2cc(c3OC2O[C@H](CO)C(O)C(O)[C@H]2O[C@@H]2CC(C)[C@@H](O)C(C)(NCc3cccc4ccccc34)C2)Oc2ccc(cc2Cl)[C@H]1O (stereo partly drawn) [Van027] | 1 µg/mL (≈ 0.54 µM) | 4 µg/mL (≈ 2.16 µM) |  | 

Further lines, with some results ahead:

MIC ([1]; NEWMAN) | MIC ([2]; S. aureus Mu50, 37° C.) | Compound | MIC [1] | MIC [2]
2 µg/mL (≈ 1.02 µM) | 4 µg/mL (≈ 2.03 µM) | CN[C@H](CC(C)C)C(=O)N[C@H]1C(=O)N[C@@H](CC(N)=O)C(=O)N[C@H]2C(=O)N[C@H]3C(=O)N[C@H](C(=O)N[C@H](C(=O)NCCCN(C)C)c4cc(O)c(CNCCOC5OC(CO)[C@@H](O)C(O)C5O)c(O)c4-c4cc3ccc4O)[C@H](O)c3ccc(c(Cl)c3)Oc3cc2cc(c3OC2O[C@H](CO)C(O)C(O)[C@H]2O[C@H]2CC(C)(NCc3ccc(-c4ccc(Cl)cc4)cc3)[C@H](O)C(C)O2)Oc2ccc(cc2Cl)[C@H]1O (stereo partly drawn) [Van021] |  | 
≤ 0.0625 µg/mL | 1 µg/mL (≈ 0.531 µM) | CN[C@H](CC(C)C)C(=O)N[C@H]1C(=O)N[C@@H](CC(N)=O)C(=O)N[C@H]2C(=O)N[C@H]3C(=O)N[C@H](C(=O)N[C@H](C(=O)O)c4cc(O)c(CNCCO[C@@H]5OC(CO)[C@H](O)C(O)C5O)c(O)c4-c4cc3ccc4O)[C@H](O)c3ccc(c(Cl)c3)Oc3cc2cc(c3OC2O[C@H](CO)C(O)C(O)[C@H]2O[C@@H]2CC(C)[C@@H](O)C(C)(NCc3ccc(-c4ccc(Cl)cc4)cc3)C2)Oc2ccc(cc2Cl)[C@H]1O (stereo partly drawn) [Van011] |  | 
